Laboratory results as given in patent US8178506B2, “Oligomeric compounds and compositions for use in modulation of small non-coding RNAs” (Regulus Therapeutics Inc., priority 2003, dated 2012).
In the oligonucleotide strings, read from the 5' end, every base follows the letter of its sugar. An asterisk marks phosphorothioate; unmarked linkages are phosphodiester. Other units and linkages are bracketed, terminal groups are in braces. A string of capitals states the bases alone. e = 2'-O-(2-methoxyethyl) (MOE); [5mC] = 5-methylcytosine

Columns and labels:
[1] = system: PEPCK-c; test: PEPCK-c mRNA expression in HepG2 cells; assay type: cell-based, human; settings: for PEPCKc mRNA expression: Experiment 2, insulin treated: HepG2 cells transfected with oligomeric compound, 1 nM insulin for four hours, UTC + 1 nM insulin = 100; for PEPCKc mRNA: HepG2 cells, Experiment 1, basal (no insulin), four hours, UTC = 100
[2] = system: adipocytes; test: Triglyceride accumulation assay in adipocytes; assay type: cell-based, human; settings: differentiating adipocytes transfected with oligomeric compound; Table 75

| Substance | PEPCKc mRNA expression [1] | PEPCKc mRNA [1] | TG (triglyceride accumulation) [2] | reduction of PEPCK-c mRNA expression ([1]; HepG2, 1 nM insulin, 100 nM) [%] | decrease in PEPCK-c mRNA ([1]; HepG2, basal (no insulin), 100 nM) [%] |
| --- | --- | --- | --- | --- | --- |
| 327964 (antisense e[5mC]*e[5mC]*eA*eA*eG*eT*eT*e[5mC]*eT*eG*eT*e[5mC]*eA*eT*eG*e[5mC]*eA*e[5mC]*eT*eG*eA) [compound 327964] | 122 | 74 | 60 percentage of untreated control (UTC) |  |  |
| 327952 (antisense e[5mC]*eT*eA*e[5mC]*eG*e[5mC]*eG*eT*eA*eT*eT*e[5mC]*eT*eT*eA*eA*eG*e[5mC]*eA*eA*eT*eA) [compound 327952] | 85 | 70 | 93 percentage of untreated control (UTC) |  |  |
| 327965 (antisense eA*eT*e[5mC]*eA*e[5mC]*eA*eT*eA*eG*eG*eA*eA*eT*eA*eA*eA*eA*eA*eG*e[5mC]*e[5mC]*eA*eT*eA) [compound 327965] | 64 | 63 | 116 percentage of untreated control (UTC) |  |  |
| 327936 (antisense eA*e[5mC]*eA*eG*e[5mC]*eT*eG*eG*eT*eT*eG*eA*eA*eG*eG*eG*eG*eA*e[5mC]*e[5mC]*eA*eA) [compound 327936] |  |  | 23 percentage of untreated control (UTC) |  |  |
| 327963 (antisense eA*eA*e[5mC]*e[5mC]*eT*eA*eT*e[5mC]*e[5mC]*eT*eG*eA*eA*eT*eT*eA*e[5mC]*eT*eT*eG*eA*eA) [compound 327963] | 94 | 92 | 124 percentage of untreated control (UTC) |  |  |
| 327873 (antisense e[5mC]*eT*eA*e[5mC]*e[5mC]*eA*eT*eA*eG*eG*eG*eT*eA*eA*eA*eA*e[5mC]*e[5mC]*eA*e[5mC]*eT) [compound 327873] |  | 72 | 105 percentage of untreated control (UTC) |  |  |
| 327961 (antisense eG*eG*eG*eG*eT*eA*eT*eT*eT*eG*eA*e[5mC]*eA*eA*eA*e[5mC]*eT*eG*eA*e[5mC]*eA) [compound 327961] | 126 | 98 | 77 percentage of untreated control (UTC) |  |  |
| 327944 (antisense eA*eA*eA*eG*eT*eG*eT*e[5mC]*eA*eG*eA*eT*eA*e[5mC]*eG*eG*eT*eG*eT*eG*eG) [compound 327944] |  |  | 38 percentage of untreated control (UTC) |  |  |
| CTAGTGGTCCTAAACATTTCAC (chemistry not given here) [ISIS 327878, uniform 2′-MOE PS; targets mir-203] |  |  |  | 71 | 55 |
| 327958 (antisense e[5mC]*e[5mC]*eG*eG*e[5mC]*eT*eG*e[5mC]*eA*eA*e[5mC]*eA*e[5mC]*eA*eA*eG*eA*e[5mC]*eA*e[5mC]*eG*eA) [compound 327958] | 106 | 73 | 28 percentage of untreated control (UTC) |  |  |
| 327940 (antisense eG*eA*eA*e[5mC]*eA*eG*eG*eT*eA*eG*eT*e[5mC]*eT*eG*eA*eA*e[5mC]*eA*e[5mC]*eT*eG*eG*eG) [compound 327940] |  |  | 62 percentage of untreated control (UTC) |  |  |
| 327957 (antisense e[5mC]*eA*e[5mC]*eA*eA*eG*eT*eT*e[5mC]*eG*eG*eA*eT*e[5mC]*eT*eA*e[5mC]*eG*eG*eG*eT*eT) [compound 327957] | 88 | 59 | 29 percentage of untreated control (UTC) |  |  |
| 327945 (antisense e[5mC]*eT*eG*eT*eT*e[5mC]*e[5mC]*eT*eG*e[5mC]*eT*eG*eA*eA*e[5mC]*eT*eG*eA*eG*e[5mC]*e[5mC]*eA) [compound 327945] |  |  | 48 percentage of untreated control (UTC) |  |  |
| 327949 (antisense e[5mC]*eA*e[5mC]*eA*eA*eA*eT*eT*e[5mC]*eG*eG*eA*eT*e[5mC]*eT*eA*e[5mC]*eA*eG*eG*eG*eT*eA) [compound 327949] | 101 | 81 | 43 percentage of untreated control (UTC) |  |  |
| 327950 (antisense eT*e[5mC]*eA*eG*eT*eT*eT*eT*eG*e[5mC]*eA*eT*eA*eG*eA*eT*eT*eT*eG*e[5mC]*eA*e[5mC]*eA) [compound 327950] | 82 | 65 | 125 percentage of untreated control (UTC) |  |  |
| 327959 (antisense e[5mC]*eA*eG*e[5mC]*e[5mC]*eG*e[5mC]*eT*eG*eT*e[5mC]*eA*e[5mC]*eA*e[5mC]*eG*e[5mC]*eA*e[5mC]*eA*eG) [compound 327959] | 156 | 139 | 33 percentage of untreated control (UTC) |  |  |
| 327935 (antisense e[5mC]*eT*eA*e[5mC]*e[5mC]*eT*eG*e[5mC]*eA*e[5mC]*eT*eA*eT*eA*eA*eG*e[5mC]*eA*e[5mC]*eT*eT*eT*eA) [compound 327935] |  |  | 41 percentage of untreated control (UTC) |  |  |
| 327946 (antisense eA*eG*eG*e[5mC]*eG*eA*eA*eG*eG*eA*eT*eG*eA*e[5mC]*eA*eA*eA*eG*eG*eG*eA*eA) [compound 327946] | 99 | 90 | 82 percentage of untreated control (UTC) |  |  |
| 327971 (antisense eG*eG*eA*eA*eA*eT*e[5mC]*e[5mC]*e[5mC]*eT*eG*eG*e[5mC]*eA*eA*eT*eG*eT*eG*eA*eT) [compound 327971] |  |  | 45 percentage of untreated control (UTC) |  |  |
